Results published in patent US20180015100A1, “COMBINATION PRODUCTS FOR THE TREATMENT OF BACTERIAL INFECTIONS AND METHODS OF PRODUCING OR DOSING OF SAME” (priority 2016, published 2018).

Assays:
[1] = clinical; settings: human, in vivo, 400 mg
Experimental: The twice daily divided dose of study drug was administered approximately 12 hours apart. All subjects randomized to placebo received placebo oral capsules that were identical to study drug capsules and given according to the same dosing schedule and same quantity of capsules as subjects randomized to receive ceftibuten and clavulanate concurrently. All SDs, as well as the first daily dose of the MD period on […] were given while the subject was fasted. […] In addition, blood samples for assessment of trough (pre-dose) concentrations were collected on day 7, day 8, day 9, and alternate days thereafter through study day 17. […] Peak concentration (Cmax), time at which Cmax was observed (Tmax), area under the concentration-time curve to infinity (AUCinf), percent coefficient of variation (% CV), elimination half-life (T1/2), apparent total clearance of the drug from plasma after oral administration (CL/F), and apparent volume of distribution during terminal phase after non-intravenous administration (Vz/F) were determined. […] Similar to above, six subjects were randomized to receive active drug and two were randomized to receive placebo. […] Safety, tolerability and PK were assessed as described above.

[2] = in vivo, cited from earlier work
[3] = test system: Escherichia coli isolates; test: MIC of cephalosporins alone or with clavulanate/tazobactam; format: cell-based; settings: clavulanate 2:1, tazobactam 4 μg/mL
[4] = In vivo drug-drug interaction, plasma pharmacokinetics after oral bolus; settings: rat, oral 34.5 mg/kg ceftibuten ± 10.8 mg/kg clavulanate
[5] = test system: Citrobacter freundii isolates; test: MIC of cephalosporins alone or with clavulanate/tazobactam; format: cell-based; settings: clavulanate 2:1, tazobactam 4 μg/mL
[6] = test system: ESBL Klebsiella pneumoniae isolates; test: Killing kinetics (time-kill); format: cell-based; settings: 4X MIC of CTB+CLA

Nc1nc(/C(=C/CC(=O)O)C(=O)N[C@@H]2C(=O)N3C(C(=O)O)=CCS[C@H]23)cs1 [Ceftibuten, ceftibuten]
geometric mean % CV of exposure (Cmax and AUCinf) [1]: 11-16%
AUC(0-inf) ([1]; po, AUCinf): 93000 ng·h/mL
Cmax ([1]; po, Cmax): 17900 ng/mL
half-life ([1]; po, T½): 3.11 h
Vd/F ([1]; po, Vz/F): 19.3 L
Mean Cmax ([2]; 400 mg): 15000 ng/mL
Mean fCmax ([2]; 400 mg): 5.3 µg/mL
bioavailability ([2]; po): 40-90%
time free drug concentrations >2 μg/mL following drug administration ([2]; po): at least 6 hours
Elimination half-life [2]: ~2.4 h
Mean unbound plasma concentration following one elimination half-life [2]: 2600 ng/mL
MIC ([3]; AECO001 (no ESBL)): 0.5 µg/mL
MIC ([3]; AECO1078 (CTX-M-15)): 32 µg/mL
MIC ([3]; AECO1147 (CTX-M-15)): 4 µg/mL
MIC ([3]; AECO1157 (CTX-M-15, TEM-OSBL)): 8 µg/mL
MIC ([3]; AECO1159 (CTX-M-15)): 16 µg/mL
MIC ([3]; AECO1169 (CTX-M-1, TEM-OSBL)): 1 µg/mL
MIC ([3]; AECO1172 (CTX-M-14)): 2 µg/mL
effect of the combination on plasma concentration of ceftibuten vs ceftibuten alone [4]: did not markedly alter
MIC ([5]; ACFR1034 (CTX-M-15, TEM-OSBL)): > 64 µg/mL
MIC ([5]; ACFR1035 (CTX-M-3, TEM-OSBL)): 16 µg/mL
Change in Log10 CFU/mL From Inoculum (0 hr) ([6]; AKPN1159, 2 h): 0.65 Log10 CFU/mL
Change in Log10 CFU/mL From Inoculum (0 hr) ([6]; AKPN1159, 4 h): 2.37 Log10 CFU/mL
Change in Log10 CFU/mL From Inoculum (0 hr) ([6]; AKPN1159, 6 h): 3.01 Log10 CFU/mL
Change in Log10 CFU/mL From Inoculum (0 hr) ([6]; AKPN1159, 24 h): 3.71 Log10 CFU/mL
Change in Log10 CFU/mL From Inoculum (0 hr) ([6]; AKPN1162, 2 h): 1.57 Log10 CFU/mL
Change in Log10 CFU/mL From Inoculum (0 hr) ([6]; AKPN1162, 4 h): 2.76 Log10 CFU/mL
Change in Log10 CFU/mL From Inoculum (0 hr) ([6]; AKPN1162, 6 h): 2.96 Log10 CFU/mL
Change in Log10 CFU/mL From Inoculum (0 hr) ([6]; AKPN1162, 24 h): 3.55 Log10 CFU/mL
